Reference: patent US11827629B2, “CDGSH iron sulfur domain 2 activators and use thereof” (National Health Research Institutes, priority 2021, dated 2023)

Tested on: Cisd2 promoter with firefly luciferase reporter
Test: Cisd2-luciferase reporter assay in HEK293-CISD2 cells
Assay type: cell-based
Settings: Homo sapiens, 24 hours incubation, luciferase luminescence
Method: A typical in vitro screening method includes the following steps: (i) obtaining an initial level of Cisd2 in a batch of human embryonic kidney cells 293 (HEK-293 cells) that express Cisd2, (ii) treating the batch of HEK-293 cells with a compound of this invention, and (iii) analyzing the level of Cisd2 after the treatment, thereby determining the potency of the compound as a Cisd2 activator.
Compounds 1-109 were tested for increasing the level of Cisd2 in human embryonic kidney cells 293 (HEK293), a transfected cell line expressing Cisd2, using the Cisd2-luciferase reporter assay as follows.
The transfected HEK293 cells stably expressed Cisd2 promoter with firefly luciferase reporter (HEK293-CISD2). They were kept in Dulbecco's modified Eagle's medium (DMEM) (Gibco, New York, NY, USA). Culture medium was supplemented with 10% heat-inactivated fetal bovine serum (FBS), 2 mM L-Glutamine, 1 mM sodium pyruvate, 0.1% MEM Non-Essential Amino Acids, 1 ug/ml puromycin and 1% penicillin/streptomycin (HyClone, Logan, UT, USA). The cells were maintained at 37° C. in an incubator (Thermo Fisher Scientific, New York, NY, USA) with an atmosphere of 5% CO2. The stably transfected cells were seeded in 384-well plates at a density of 3×10^3 cells/well. After incubation with tested compounds at 37° C. for 24 hours, ONE-Glo™ Luciferase Assay System (Promega, Madison, WI, USA) was added at room temperature for 5 minutes to detect any luciferase activity. Luminescence intensity was registered using plate reader Victor^2V (PerkinElmer, Boston, MA, USA).
EC50 values in this table are presented in three classes, i.e., A: <1 μM, B: 1 μM-5 μM, and C: 5 μM-10 μM.

Row | SMILES | EC50 [µM]
1 | Cc1ccc(SCC(=O)N2Cc3ccccc3C2)cc1 [Compound 62, 1-(1,3-dihydro-2H-isoindol-2-yl)-2-[(4-methylphenyl)sulfanyl]ethanone] | 5 to 10
2 | O=C(CSc1cccc(Cl)c1Cl)N1Cc2ccccc2C1 [Compound 68, 2-[(2,3-dichlorophenyl)sulfanyl]-1-(1,3-dihydro-2H-isoindol-2-yl)ethanone] | 1 to 5
3 | Cc1nc(SCC(=O)N2Cc3ccccc3C2)sc1C [Compound 69, 1-(1,3-dihydro-2H-isoindol-2-yl)-2-[(4,5-dimethyl-1,3-thiazol-2-yl)sulfanyl]ethanone] | 1 to 5
4 | Cn1ccc(SCC(=O)N2Cc3ccccc3C2)n1 [Compound 70, 1-(1,3-dihydro-2H-isoindol-2-yl)-2-[(1-methyl-1H-pyrazol-3-yl)sulfanyl]ethanone] | 1 to 5
5 | O=C(CSc1cccc(F)n1)N1Cc2ccccc2C1 [Compound 73, 1-(1,3-dihydro-2H-isoindol-2-yl)-2-[(6-fluoropyridin-2-yl)sulfanyl]ethanone] | 1 to 5
6 | O=C(CSc1ccc(C(F)F)s1)N1Cc2ccccc2C1 [Compound 76, 2-{[5-(difluoromethyl)thiophen-2-yl]sulfanyl}-1-(1,3-dihydro-2H-isoindol-2-yl)ethanone] | 1 to 5
7 | O=C(CSc1ccccn1)N1Cc2ccc(N3CCOCC3)cc2C1 [Compound 77, 1-[5-(morpholin-4-yl)-1,3-dihydro-2H-isoindol-2-yl]-2-(pyridin-2-ylsulfanyl)ethanone] | 5 to 10
8 | O=C(C[S+]([O-])c1ccc(Cl)s1)N1Cc2ccccc2C1 (stereo not drawn) [Compound 80, 2-[(5-chlorothiophen-2-yl)sulfinyl]-1-(1,3-dihydro-2H-isoindol-2-yl)ethanone] | 1 to 5
9 | O=C(CC[S+]([O-])c1ccccc1)N1Cc2ccccc2C1 (stereo not drawn) [Compound 84, 1-(1,3-dihydro-2H-isoindol-2-yl)-3-(phenylsulfinyl)propan-1-one] | < 1
10 | O=C(CS(=O)(=O)c1ccccn1)N1Cc2ccc(O)cc2C1 [Compound 85, 1-(5-hydroxy-1,3-dihydro-2H-isoindol-2-yl)-2-(pyridin-2-ylsulfonyl)ethanone] | < 1
11 | O=C(CS(=O)(=O)c1cccc(F)c1)N1Cc2ccccc2C1 [Compound 86, 1-(1,3-dihydro-2H-isoindol-2-yl)-2-[(3-fluorophenyl)sulfonyl]ethanone] | < 1
12 | O=C(CS(=O)(=O)c1ccc(F)cc1)N1Cc2ccccc2C1 [Compound 87, 1-(1,3-dihydro-2H-isoindol-2-yl)-2-[(4-fluorophenyl)sulfonyl]ethanone] | < 1
13 | O=C(CS(=O)(=O)c1ccc(Cl)s1)N1Cc2ccccc2C1 [Compound 88, 2-[(5-chlorothiophen-2-yl)sulfonyl]-1-(1,3-dihydro-2H-isoindol-2-yl)ethanone] | < 1
14 | O=C(CS(=O)(=O)c1cc(F)ccc1F)N1Cc2ccccc2C1 [Compound 89, 2-[(2,5-difluorophenyl)sulfonyl]-1-(1,3-dihydro-2H-isoindol-2-yl)ethanone] | 5 to 10
15 | O=C(CS(=O)(=O)c1ccccc1F)N1Cc2ccccc2C1 [Compound 90, 1-(1,3-dihydro-2H-isoindol-2-yl)-2-[(2-fluorophenyl)sulfonyl]ethanone] | < 1
16 | O=C(CS(=O)(=O)c1ccc(F)cc1F)N1Cc2ccccc2C1 [Compound 91, 2-[(2,4-difluorophenyl)sulfonyl]-1-(1,3-dihydro-2H-isoindol-2-yl)ethanone] | < 1
17 | O=C(CS(=O)(=O)c1ccccc1F)N1Cc2ccc(F)cc2C1 [Compound 92, 1-(5-fluoro-1,3-dihydro-2H-isoindol-2-yl)-2-[(2-fluorophenyl)sulfonyl]ethanone] | < 1
18 | O=C(CS(=O)(=O)c1ccccc1)N1Cc2ccc(F)cc2C1 [Compound 93, 1-(5-fluoro-1,3-dihydro-2H-isoindol-2-yl)-2-(phenylsulfonyl)ethanone] | < 1
19 | Cc1csc(S(=O)(=O)CC(=O)N2Cc3ccccc3C2)n1 [Compound 94, 1-(1,3-dihydro-2H-isoindol-2-yl)-2-[(4-methyl-1,3-thiazol-2-yl)sulfonyl]ethanone] | < 1
20 | O=C(CS(=O)(=O)c1ccccc1F)N1Cc2cc(F)c(F)cc2C1 [Compound 95, 1-(5,6-difluoro-1,3-dihydro-2H-isoindol-2-yl)-2-[(2-fluorophenyl)sulfonyl]ethanone] | < 1
21 | O=C(CS(=O)(=O)c1ccccc1)N1Cc2cccc(F)c2C1 [Compound 96, 1-(4-fluoro-1,3-dihydro-2H-isoindol-2-yl)-2-(phenylsulfonyl)ethanone] | < 1
22 | O=C(CS(=O)(=O)c1cccc(F)n1)N1Cc2ccccc2C1 [Compound 97, 1-(1,3-dihydro-2H-isoindol-2-yl)-2-[(6-fluoropyridin-2-yl)sulfonyl]ethanone] | < 1
23 | O=C(CS(=O)(=O)c1cccc(Cl)c1Cl)N1Cc2ccccc2C1 [Compound 98, 2-[(2,3-dichlorophenyl)sulfonyl]-1-(1,3-dihydro-2H-isoindol-2-yl)ethanone] | < 1
24 | O=C(CS(=O)(=O)c1ccccc1Cl)N1Cc2ccccc2C1 [Compound 99, 2-[(2-chlorophenyl)sulfonyl]-1-(1,3-dihydro-2H-isoindol-2-yl)ethanone] | < 1
25 | O=C(CS(=O)(=O)c1ccccn1)N1Cc2ccc(N3CCOCC3)cc2C1 [Compound 100, 1-[5-(morpholin-4-yl)-1,3-dihydro-2H-isoindol-2-yl]-2-(pyridin-2-ylsulfonyl)ethanone] | 1 to 5
26 | O=C(CS(=O)(=O)c1ccc(F)cn1)N1Cc2ccccc2C1 [Compound 101, 1-(1,3-dihydro-2H-isoindol-2-yl)-2-[(5-fluoropyridin-2-yl)sulfonyl]ethanone] | < 1
27 | Cn1ccc(S(=O)(=O)CC(=O)N2Cc3ccccc3C2)n1 [Compound 102, 1-(1,3-dihydro-2H-isoindol-2-yl)-2-[(1-methyl-1H-pyrazol-3-yl)sulfonyl]ethanone] | 1 to 5
28 | O=C(CS(=O)(=O)c1ncccc1F)N1Cc2ccccc2C1 [Compound 103, 1-(1,3-dihydro-2H-isoindol-2-yl)-2-[(3-fluoropyridin-2-yl)sulfonyl]ethanone] | < 1

The next lines start with the values.

Row | EC50 [µM] | SMILES
29 | < 1 | O=C(CSc1ccccc1F)N1Cc2ccc(F)cc2C1 [Compound 63, 1-(5-fluoro-1,3-dihydro-2H-isoindol-2-yl)-2-[(2-fluorophenyl)sulfanyl]ethanone]
30 | < 1 | O=C(CSc1ccccc1)N1Cc2ccc(F)cc2C1 [Compound 64, 1-(5-fluoro-1,3-dihydro-2H-isoindol-2-yl)-2-(phenylsulfanyl)ethanone]
31 | < 1 | O=C(CSc1ccccc1F)N1Cc2cc(F)c(F)cc2C1 [Compound 65, 1-(5,6-difluoro-1,3-dihydro-2H-isoindol-2-yl)-2-[(2-fluorophenyl)sulfanyl]ethanone]
32 | < 1 | O=C(CSc1ccccc1)N1Cc2cccc(F)c2C1 [Compound 66, 1-(4-fluoro-1,3-dihydro-2H-isoindol-2-yl)-2-(phenylsulfanyl)ethanone]
33 | < 1 | O=C(CSc1ccccc1Cl)N1Cc2ccccc2C1 [Compound 67, 2-[(2-chlorophenyl)sulfanyl]-1-(1,3-dihydro-2H-isoindol-2-yl)ethanone]
34 | < 1 | O=C(CSc1ncccc1F)N1Cc2ccccc2C1 [Compound 71, 1-(1,3-dihydro-2H-isoindol-2-yl)-2-[(3-fluoropyridin-2-yl)sulfanyl]ethanone]
35 | < 1 | O=C(CSc1ncco1)N1Cc2ccccc2C1 [Compound 72, 1-(1,3-dihydro-2H-isoindol-2-yl)-2-(1,3-oxazol-2-ylsulfanyl)ethanone]
36 | < 1 | N#Cc1ccc(SCC(=O)N2Cc3ccccc3C2)s1 [Compound 74, 5-{[2-(1,3-dihydro-2H-isoindol-2-yl)-2-oxoethyl]sulfanyl}thiophene-2-carbonitrile]
37 | < 1 | O=C(CSc1ccc(CO)s1)N1Cc2ccccc2C1 [Compound 75, 1-(1,3-dihydro-2H-isoindol-2-yl)-2-{[5-(hydroxymethyl)thiophen-2-yl]sulfanyl}ethanone]
38 | < 1 | O=C(CCSc1ccccc1Cl)N1Cc2ccccc2C1 [Compound 78, 3-[(2-chlorophenyl)sulfanyl]-1-(1,3-dihydro-2H-isoindol-2-yl)propan-1-one]
39 | < 1 | O=C(CCSc1ccccc1)N1Cc2ccccc2C1 [Compound 79, 1-(1,3-dihydro-2H-isoindol-2-yl)-3-(phenylsulfanyl)propan-1-one]
40 | < 1 | O=C(C[S+]([O-])c1ccccc1Cl)N1Cc2ccccc2C1 (stereo not drawn) [Compound 81, 2-[(2-chlorophenyl)sulfinyl]-1-(1,3-dihydro-2H-isoindol-2-yl)ethanone]
41 | < 1 | O=C(C[S+]([O-])c1cccc(F)n1)N1Cc2ccccc2C1 (stereo not drawn) [Compound 82, 1-(1,3-dihydro-2H-isoindol-2-yl)-2-[(6-fluoropyridin-2-yl)sulfinyl]ethanone]
42 | < 1 | O=C(CC[S+]([O-])c1ccccc1Cl)N1Cc2ccccc2C1 (stereo not drawn) [Compound 83, 3-[(2-chlorophenyl)sulfinyl]-1-(1,3-dihydro-2H-isoindol-2-yl)propan-1-one]
